{"source": "patent US9125862B2", "about": "“Methods for the treatment of Prader-Willi-like syndrome or non-organic failure to thrive (NOFITT) feeding disorder using an agonist of the oxytocin receptor” (Institut National de la Sante et de la Rechereche Medicale …, priority 2010, dated 2015)", "tested_on": "adult patients with PWS", "experiment": "Behavioural grid scores after a single intranasal administration, double-blind placebo-controlled pilot study", "format": "in vivo, human", "design": "key to Change in behavioural scores: Depressive tendencies, Mean / Change in behavioural scores: Self-depreciation, Mean / Change in behavioural scores: Interest in love affair, Mean / Change in behavioural scores: Trust in others, Mean / Change in behavioural scores: Isolation tendencies, Mean / Change in behavioural scores: Sadness tendencies, Mean: grid score: negative = deterioration, positive = improvement", "from_the_text": "The inventors designed a double-blind randomised, placebo-controlled pilot study (ClinicalTrials.gov Identifier: NCT01038570) to be conducted in a dedicated PWS centre, where patients are regularly admitted for one month and live in a controlled environment. Patients know they have no free access to food but no doubt about the time and the content of meals. For each stay, 16 patients with PWS are admitted and take part in daily planned occupational and physical group activities. They also receive medical care as needed and psychological support. The 24 patients included in this study (16 females, 8 males, median age 28.5 years [18.7 to 43.6], median BMI 43 kg/m2 [19.4 to 67.4]) were stratified on gender and IQ (median IQ=51 [45 to 75]). […] Patients as well as parents or caregivers gave their written consent prior to entering the study. Exclusion criteria were an abnormal ECG and other severe cardiovascular problems. Patients were well known to the team. Each pair of patients of the same gender and same IQ range was evaluated the same day. The two patients of the pair received either OT or placebo in a double-blind randomisation. Patients were included in the study over the course of three series of stays.\nEach patient received a single intranasal administration of either placebo (saline solution) or OT (Syntocinon®/-Spray, Novartis, Basel, Switzerland) with three puffs per nostril (24 UI). The dose of 24 UI is the most frequently reported in the literature. […] This nurse knew neither the patients nor the study.\nThe behaviour of the patients was carefully monitored, scored daily by the team psychologist, and documented on the case report form for the two days before drug administration, on the half-day following administration (early effects) and over the two days following drug administration (late effects). Both the staff and the rater were unaware of treatment status. There are currently no validated grids that evaluate the specific behavioural features of patients with PWS that they particularly wanted to study, i.e. tendencies towards isolation, sadness, and depression, self-depreciation, self-mutilation, conflicts with others, disruptive behaviour, interest in friendship, interest in love affairs, and trust of others. For this reason, they used an in-house grid developed by the caregivers and based on the routine observation of these patients in this dedicated centre for PWS with recognized expertise (17, 18). The criteria that the staff used to fill in the grid are explained in Table 1. The patients were well known to the team but the mean behavior status was re-evaluated during the first week of admission using the same grid. The behavioural features of the patients were scored as unchanged, moderately changed, or severely changed. For each criterion, a negative score reflected deterioration in the mean behavior status of the patient while a positive score reflected an improvement. Eating behaviour was also scored using three categories: usual, better than usual or worse, based on the analysis of each meal. The following were evaluated: amount of food intake per meal, amount of food requested per meal, duration of meal, and behaviour before/during/after the meal. To evaluate the early effect of OT, we analysed only the first meal after drug administration.", "key": {"[1]": {"settings": "19 patients with deletions, P=0.05, data not shown"}, "[2]": {"settings": "Early effect (half-day following administration), intranasal 24 UI"}, "[3]": {"settings": "Late effect (mean of two days following administration), intranasal 24 UI"}, "[4]": {"settings": "Pre-administration (mean of two days before), OT group baseline"}, "[5]": {"settings": "pre-post difference (late effect score minus pre-administration score), OT group"}}}
{"smiles": "CC[C@H](C)[C@@H]1NC(=O)[C@H](Cc2ccc(O)cc2)NC(=O)[C@@H](N)CSSC[C@@H](C(=O)N2CCC[C@H]2C(=O)N[C@@H](CC(C)C)C(=O)NCC(N)=O)NC(=O)[C@H](CC(N)=O)NC(=O)[C@H](CCC(N)=O)NC1=O", "note": "[oxytocin]", "values": [{"measurement": "effect on disruptive behaviour", "setting": "19 patients with deletions (9 OT, 10 placebo), P=0.04, data not shown", "value": "significant effect"}, {"measurement": "interest in friendship", "setting": "[1]", "value": "more interest in friendship"}, {"measurement": "trust in others", "setting": "[1]", "value": "trend towards more trust in others"}, {"measurement": "sadness tendencies", "setting": "19 patients with deletions, P=0.07, data not shown", "value": "fewer sadness tendencies"}, {"measurement": "Depressive tendencies score", "setting": "[2]", "value": "0 ± 0"}, {"measurement": "Disruptive behaviour score", "setting": "[2]", "value": "−0.167 ± 0.389"}, {"measurement": "Interest in friendship score", "setting": "[2]", "value": "0.917 ± 0.515"}, {"measurement": "Interest in love affairs score", "setting": "[2]", "value": "0.917 ± 0.515"}, {"measurement": "Isolation tendencies score", "setting": "[2]", "value": "−0.083 ± 0.289"}, {"measurement": "Sadness tendencies score", "setting": "[2]", "value": "−0.083 ± 0.289"}, {"measurement": "Self-depreciation score", "setting": "[2]", "value": "−0.083 ± 0.289"}, {"measurement": "Self-mutilation score", "setting": "[2]", "value": "−0.083 ± 0.289"}, {"measurement": "Trust in others score", "setting": "[2]", "value": "0.833 ± 0.389"}, {"measurement": "Conflicts with others score", "setting": "[3]", "value": "−0.111 ± 0.205"}, {"measurement": "Depressive tendencies score", "setting": "[3]", "value": "0 ± 0"}, {"measurement": "Interest in friendship score", "setting": "[3]", "value": "1.028 ± 0.234"}, {"measurement": "Interest in love affairs score", "setting": "[3]", "value": "0.903 ± 0.411"}, {"measurement": "Isolation tendencies score", "setting": "[3]", "value": "0 ± 0"}, {"measurement": "Self-depreciation score", "setting": "[3]", "value": "0 ± 0"}, {"measurement": "Self-mutilation score", "setting": "[3]", "value": "−0.083 ± 0.195"}, {"measurement": "Conflicts with others score", "setting": "[4]", "value": "−0.319 ± 0.359"}, {"measurement": "Depressive tendencies score", "setting": "[4]", "value": "−0.056 ± 0.192"}, {"measurement": "Disruptive behaviour score", "setting": "[4]", "value": "−0.431 ± 0.344"}, {"measurement": "Interest in friendship score", "setting": "[4]", "value": "0.875 ± 0.433"}, {"measurement": "Interest in love affairs score", "setting": "[4]", "value": "0.972 ± 0.531"}, {"measurement": "Isolation tendencies score", "setting": "[4]", "value": "−0.083 ± 0.289"}, {"measurement": "Sadness tendencies score", "setting": "[4]", "value": "−0.194 ± 0.407"}, {"measurement": "Self-depreciation score", "setting": "[4]", "value": "−0.056 ± 0.192"}, {"measurement": "Self-mutilation score", "setting": "[4]", "value": "−0.278 ± 0.468"}, {"measurement": "Trust in others score", "setting": "[4]", "value": "0.861 ± 0.332"}, {"measurement": "disruptive behaviour", "setting": "excluding the seven patients on psychotropic medications, two days following administration, P=0.04, data not shown", "value": "less disruptive behaviour"}, {"measurement": "Change in behavioural scores: Conflicts with others, Mean", "setting": "[5]", "value": 0.208}, {"measurement": "Change in behavioural scores: Depressive tendencies, Mean", "setting": "[5]", "value": 0.056}, {"measurement": "Change in behavioural scores: Interest in friendship, Mean", "setting": "[5]", "value": 0.153}, {"measurement": "Change in behavioural scores: Interest in love affair, Mean", "setting": "[5]", "value": "−0.069"}, {"measurement": "Change in behavioural scores: Isolation tendencies, Mean", "setting": "[5]", "value": 0.083}, {"measurement": "Change in behavioural scores: Sadness tendencies, Mean", "setting": "[5]", "value": 0.111}, {"measurement": "Change in behavioural scores: Self-depreciation, Mean", "setting": "[5]", "value": 0.056}, {"measurement": "Change in behavioural scores: Trust in others, Mean", "setting": "[5]", "value": 0.167}]}
